Patent US20240115672A1, “TREATMENT OF AN IOP CONDITION” (THE RESEARCH FOUNDATION FOR THE STATE UNIVERSITY OF NEW YORK, priority 2021, published 2024)

Columns and labels:
[1] = tested on: MMP-2, MMP-9, MMP-13 expression in HTM cells; experiment: MMP expression in HTM cells (Examples 17, 18); type: cell-based, human; conditions: for MMP-9 expression compared to PA+NE-tPA treated cells: p<0.0001
[2] = tested on: Mmp-2, Mmp-9, Mmp-13 mRNA in angle ring tissues; experiment: Mmp expression in Tg-MYOCY437H angle ring tissues (Example 19); type: in vivo, mouse; conditions: 5 days treatment
Procedure: Eyes were flash frozen in liquid nitrogen after outflow facility determination and subsequently dissected on ice to obtain the angle ring tissues containing the TM, as previously described (Kumar, Shah et al. 2013). Dissected TM tissues were immersed in RNAlater solution (Invitrogen, Waltham, MA, USA) and then snap-frozen and stored at −80° C. until RNA extraction. Tissue collected was pooled (four eyes) and homogenized in TRIzol reagent for RNA isolation, per manufacturer's instructions (Life Technologies, Carlsbad, CA, USA). RNA concentration was determined with a Nanodrop ND-1000 Spectrophotometer (Thermo Scientific, Wilmington, DE, USA). cDNA was synthesized by using High-Capacity cDNA
Reverse Transcription Kit (Applied Biosystems, Waltham, MA, USA) according to manufacturer's protocol. Quantitative real-time PCR (qRT-PCR) was performed by using Green-2-Go qPCR Mastermix-ROX (Bio Basic, Amherst, NY, USA) on a QuantStudio 6 Flex thermal cycler (Applied Biosystems, Carlsbad, CA, USA). mRNA expression of Plat, Plait, Pai-1, Mmp-2, Mmp-9, and Mmp-13 in angle ring tissues was determined. Primers were designed by using Primer-BLAST (haps://www.ncbi.nlm.nih.gov/tools/primer-blast/index.cgi?LINK_LOC=BlastHome; in the public domain); primer sequences are listed in Table 2. Primer specificity was confirmed by agarose gel electrophoresis and multiple-sized amplification products were absent on inspection of melting curves. Target mRNA expression values were normalized to the expression levels of Rps11 (ribosomal protein S11). The relative fold change was calculated by using the ΔΔCt method (Hu, Wang et al. 2015). Outliers identified via the Thompson Tau test were removed from analysis.

[3] = tested on: Tg-MYOCY437H mice; conditions: systemic and topical administration; cited from earlier work
[4] = tested on: sheep; experiment: Sheep given tPA or arginine concurrently with prednisolone (Example 3 Protocol 2, Example 4); type: in vivo; conditions: 4.23 mg arginine intravitreal plus prednisolone (OS) compared to tPA and prednisolone (OD)
Procedure: Protocol 2. In a second set of experiments, arginine was added to the BSS vehicle administered to the left eye to control for the relatively high concentration of the amino acid in the commercially available tPA lyophilisate. In these experiments all right eyes received 0.1 mg tPA, which concomitantly delivered 4.23 mg of arginine into the vitreous, and the left eye received this same amount of arginine, absent the tPA. On Day 1, prednisolone treatments were also begun simultaneously on both eyes.
Methods. In this experiment, the inventor sought to detect the effects of tPA treatment on prevention of steroid-induced IOP elevation. In 4 sheep tPA was injected in one eye (100 μg) and they were started on prednisolone acetate three times a day in both eyes. Animals were monitored for 11 days on continuous treatment.

[5] = tested on: sheep of the Coriedale breed; experiment: IOP in prednisolone-treated sheep after tPA injection into the anterior chamber (Example 9); type: in vivo
Procedure: Methods. Lyophilized IPA, obtained as Acetilyse® from Boehringer Ingelheim S.A. (Buenos Aires) containing arginine. was used. Five sheep of the Coriedale breed were selected. Initially all eyes received instillation of 1% prednisolone 3 times/day for 10 days to elevate their IOP from 10 mm Hg to about 23 mm Hg. Then, 0.0001 μg was injected into one of the eyes and its effect was followed for up to 55:00 hrs while the instillation of prednisolone continued in both eyes. The same protocol was implemented for the 0.001 and 0.01 μg amounts (after extended washout) in the contra lateral eyes. Arginine, which is associated with 0.01 ug tPA, was injected alone and had no effect.

With C[C@]12N[C@H](Cc3ccccc31)c1ccccc12 [MK-801] the “MMP-9 expression compared to PA+NE-tPA treated cells” value ([1]; inhibitor added to PA+NE-tPA) was “significantly lower” and the “MMP-2 expression compared to PA+NE-tPA treatment” value ([1]; inhibitor added to PA+NE-tPA, p<0.05) was “significant reduction”.

For O=C([O-])CCCc1ccccc1.[Na+] [PBA, sodium phenylbutarate], the “Mmp-9 expression compared to BSA treated eyes” value [2] was “higher”, the “Mmp-13 expression compared to BSA treated eyes” value [2] was “did not show any difference” and the “Mmp-2 expression compared to BSA treated eyes” value ([2]; p>0.05) was “no significant difference”. For the same molecule, the “effect on IOP” value [3] was “effective in reducing IOP”.

With N=C(N)NCCC[C@H](N)C(=O)O [arginine] the “effect of arginine alone” value [4] was “failed to reduce outflow facility” and the “effect of arginine injected alone” value ([5]; amount associated with 0.01 ug tPA) was “no effect”.

With CC(=O)OCC(=O)[C@@]1(O)CC[C@H]2[C@@H]3CCC4=CC(=O)C=C[C@]4(C)[C@H]3[C@@H](O)C[C@@]21C [prednisolone, prednisolone acetate] the IOP after prednisolone ([5]; 1% prednisolone 3 times/day for 10 days, from 10 mm Hg) was “about 23 mm Hg” and the “MMP-13 expression (FIG. 17D)” value ([1]; PA treated HTM cells) was “below detection limits”.

B1: RAP: inhibitor of LRP1 (protein, UniProt P30533 35-357, looked up)
Alpha-2-macroglobulin …: YSREKNQPKPSPKRESGEEFRMEKLNQLWEKAQRLHLPPVRLAELHADLKIQERDELAWKKLKLDGLDEDGEKEARLIRNLNVILAKYGLDGKKDARQVTSNSLSGTQEDGLDDPRLEKLWHKAKTSGKFSGEELDKLWREFLHHKEKVHEYNVLLETLSRTEEIHENVISPSDLSDIKGSVLHSRHTELKEKLRSINQGLDRLRRVSHQGYSTEAEFEEPRVIDLWDLAQSANLTDKELEAFREELKHFEAKIEKHNHYQKQLEIAHEKLRHAESVGDGERVSRSREKHALLEGRTKELGYTVKKHLQDLSGRISRARHNEL
With B1 the “MMP-9 expression compared to PA+NE-tPA treated cells” value ([1]; inhibitor added to PA+NE-tPA) was “significantly lower”.
